From patent US11214593B2, “Anticancer peptides and uses thereof” (SUIGENERIS FARMACOSMETICS, S.L., priority 2017, dated 2022)
No end group written: not given here.

How the values were obtained:
[1] = test system: human pancreatic tumor cell line BXPC3; experiment: In vitro proliferation assay, cancer growth-inhibitory activity (Assay 1, crystal violet staining); format: cell-based; conditions: BXPC3 cells, peptide 20 μM final concentration, 72 h, FIG. 1-A
Excerpt: (§1) The BXPC3 cell line from primary adenocarcinoma of human pancreas was provided by the Biomedical Research Institute (IRB) of Barcelona, and human umbilical cord primary endothelial cells (HUVEC) were obtained directly by the investigator and stored in liquid nitrogen in the laboratory. BXPC3 cells were maintained in RPMI-1640 culture medium (Gibco) supplemented with 10% fetal bovine serum and antibiotics. HUVEC cells were maintained in M199 culture medium (Gibco) supplemented with 20% fetal bovine serum, endothelial cell growth supplement (ECGS), Heparin (Hep) and antibiotics. Cultures were maintained in the cell incubator in a humid atmosphere at 37° C. containing 5% CO2.
(§2) The different peptides to be tested were easily dissolved in DMSO at a concentration of 50 mM and subsequently a 5 mM intermediate dilution was prepared in Dulbecco's PBS which was subjected to two short cycles of sonication, which retendered the peptides completely soluble. […]
(§3) Assays with the different peptides were performed following the protocol explained below. […] Once resuspended in culture medium, they were counted in Newbauer's chamber after a 1:1 dilution with trypan blue. […]
The optical density values per well were obtained by a Biotek Synergy™2 multi-detection microplate reader, using a 590 nm filter and by scanning reading, obtaining the mean values per well. […]

[2] = test system: human umbilical cord primary endothelial cells (HUVEC); experiment: In vitro proliferation assay to test toxicity (Assay 2, crystal violet staining); format: cell-based; conditions: 10 μM up to 40 μM final concentration, 72 h, FIG. 2
Excerpt: as §1, §2, §3
The optical density values per well were obtained by a Biotek Synergy™2 multi-detection microplate reader, using a 590 nm filter and by scanning reading, obtaining the mean values per well.

CFEISKY-NH2 [Peptide P1A, variant of the P1C peptide wherein the N-terminal end is free and the C-terminal end is amidated]
inhibitory capacity on cancer cell growth (in words) [1]: remarkable inhibitory capacity

CH3-C(O)-CFEVSKY-NH2 (Ac-CFEVSKY-NH2) [Peptide P1B, variant of the P1C peptide wherein the isoleucine is substituted by a valine]
inhibitory capacity on cancer cell growth (in words) [1]: remarkable inhibitory capacity

Ac-CFEISKY-NH2 [Peptide P1C, CH3-C(O)-CFEISKY-NH2]
effect on the growth of normal non-transformed cells (toxicity) [2]: did not affect the growth
